Measurements as given in publication PMC6201930 (PLoS ONE, 2018).
“And” between values parts separate entries of the source, which are not always exact repeats. Equal entries are not always repeated. Where two headings read alike, the source gives them in different places.

Legend:
[1] = Pharmacokinetics of aminoglycosides in the rat; details: sc, 10 mg/kg
Experimental: Test compounds were dissolved in PBS at 1 mg/mL and administered subcutaneously in a volume of 10 mL/kg to deliver a dose of 10 mg/kg. […] At 24 hours, the rat was euthanized and in addition to blood, quadriceps and kidney tissues were collected for subsequent analysis.
Blood was collected into tubes containing dipotassium ethylenediaminetetraacetic acid (K2 EDTA) as the anticoagulant and rotated at room temperature until the blood was centrifuged and the plasma recovered for subsequent analysis by liquid chromatography with tandem mass spectroscopy (LC-MS/MS). Noncompartmental toxicokinetic parameters were determined using Phoenix WinNonLin version 6.1 (Pharsight Corporation, Carey NC).
The concentrations of test compound in plasma, kidney and muscle were quantified by liquid chromatography-tandem mass spectrometry (LC-MS/MS). Briefly, the plasma and tissue homogenate samples were treated with acetonitrile-methanol mixture containing an internal standard that is a close analog of the test compounds. The treated plasma and […] homogenate samples were centrifuged and the supernatant was collected and analyzed using electro-spray LC-MS/MS.

[2] = tested on: zebrafish neuromasts (hair cells); experiment: Neuromast toxicity assay (DASPEI staining); details: read-out: Neuromast CC50; individual determinations (S1 File)
Experimental: All neuromast cytotoxicity assays were done at Biobide–BBD Biophenix SL (Gipuzkoa, Spain). […] Compounds were tested at 5 doses. After 24 hours of exposure embryos were incubated in DASPEI (2-(4-(dimethylamino)styryl) -N-Ethylpyridinium Iodide) for neuromast staining. Images of each embryo were taken and neuromasts counted. A compound was classified as ototoxic when the number of neuromasts in the treated group was less than that in the untreated control group (One Way ANOVA, multiple comparisons vs. vehicle).

[3] = tested on: fLuc mRNA harboring a UGA nonsense mutation at codon 190 (fLuc-190-NS); type: biochemical, rabbit
Description: ThefLuc-190-NS assay is an in vitro rabbit reticulocyte lysate translation of an fLuc mRNA harboring a UGA nonsense mutation at codon 190 (fLuc-190-NS). It is believed that positively charged aminoglycosides are poorly taken up by cells, and we used this cell-free readthrough assay to eliminate the potential variable of cell uptake when measuring readthrough potency. […] Readthrough protein was detected using a HA-HIS MSD immunoassay described previously.
This cell-free translation assay used synthetic LUC mRNAs harboring an EMCV IRES and LUC codon 190-UGA premature stop codon prepared using the MegaScript in vitro transcription kit (Ambion). Translation reactions were done with the Rabbit Reticulocyte Lysate System (Promega) with 100 ng RNA and increasing concentrations of aminoglycosides. The amount of luminescence produced was determined after approximately 4 hours using a Viewlux CCD imager (Perkin-Elmer). Fold suppression over background was calculated as (aminoglycoside light units/PBS light units).

[4] = tested on: tGFP-CFTR542X-HA-HIS construct (codon 542 UGA) in 293H cells; experiment: tGFP-542X readthrough assay (HA-HIS MSD immunoassay); type: cell-based, human
[5] = tested on: activated human peripheral blood mononuclear cells (PBMCs); experiment: Cytotoxicity in stimulated PBMCs (CellTitre-Glo ATP); details: for CC50: read-out: Stimulated PBMC CC50, individual determinations (S1 File)
Description: (§1) When considering compounds for potential readthrough therapy it is important to monitor cellular and animal safety. In order to determine the most promising compounds to further evaluate in in vivo safety, we measured cytotoxicity in two different cell types. We used activated human peripheral blood mononuclear cells (PBMCs) (Table 2 and Fig 2D and 2E). PBMCs are a primary cell that when activated with phytohaemagglutinin (PHA) expand quickly and are commonly used as an in vitro surrogate for rapidly growing cells in the human body to evaluate cytotoxicity. Prior to advancing compounds into human studies, safety evaluation in rodents is performed. As an in vitro surrogate for rodent toxicity, we used primary mouse myoblasts.
(§2) Frozen human Peripheral Blood Mononuclear Cells (PBMCs) were obtained from […] (Alameda, CA, Cat# PB003F) from a single donor. […] Plates were incubated at 37°C with 5% CO2 for 4 hours prior to compound treatment. Compounds were serially diluted and added to the plates. Plates were incubated at 37°C, 5% CO2 incubator, for 72 hours prior to determinations of ATP levels. Cell viability was determined using a chemiluminescent assay to monitor adenosine triphosphate (ATP) levels in live cells (CellTitre-Glo; CTG; Promega, Cat#G7571). Methods were performed per the manufacturer’s instructions.

[6] = in vitro; details: human
Description: as §1, §2

[7] = tested on: p53 R213* UGA premature termination codon in HDQ-P1 mammary carcinoma cells; experiment: HDQ-p53UGA213 readthrough assay (full-length p53, MSD immunoassay); type: cell-based, human; details: for HDQ-p53UGA213 (Maxfold): maximum readthrough activity above background
Experimental: We utilized HDQ-P1 mammary carcinoma cells, which are homozygous for R213*, a UGA premature termination codon in the gene for the tumor suppressor protein p53 [30]. […] Western blot hybridization and Meso Scale Discovery (MSD) immunoassay detection of p53 were done as previously described. […] Cells (45K per well) were grown in 96-well plates and treated with compounds for 24 hours. […] Cells were lysed with 60 μl per well of lysis buffer (20 mM Tris-HCL, pH 7.5, 1 mM EGTA, 1 mM EDTA,150 mM Nacl, 0.5% Triton X100) for one hour at room temperature and 30 μl of lysate per well were transferred to the coated plate and incubated overnight at 4 °C. […] Plates were then washed three times with PBS-T and 30 μl of 0.25 μ/ml goat anti-rabbit IgG-Sulfo-tag antibody (MSD) in TBS-C was added and incubated for 1 hour at room temperature. Plates were then washed three times with PBS-T and 150 μl read buffer (MSD) was added. Plates were read immediately in a SECTOR S 600 (MSD).

[8] = AVERAGE (S1 File), unit not given for EC5X
[9] = individual experiments (S1 File)
[10] = individual experiments (S1 File), unit not printed for EC5X (EC2X of the sheet in uM)
[11] = maximum readthrough above background, average ± SD
[12] = Stimulated PBMC (CC50), PHA/IL-2 stimulated, 72 hours, average ± SD
[13] = Stimulated PBMC CC50, AVERAGE (S1 File)
[14] = concentration required to double the level of full-length p53 protein, average ± SD, at least three experiments, highest concentration 300 μM

| Structure (SMILES) | CC50 [2] | fLuc-190-NS EC2X ([3]; AVERAGE (S1 File)) [µM] | fLuc-190-NS MaxFold ([3]; AVERAGE (S1 File)) | fLuc-190-NS EC5X [3, 8] | fLuc-190-NS EC2X ([3]; cell-free, average ± SD) [µM] | fLuc-190-NS MaxFold ([3]; cell-free, average ± SD) [fold] | fLuc-190-NS EC2X [3, 9] | fLuc-190-NS MaxFold [3, 9] | fLuc-190-NS EC5X [3, 10] | tGFP-542X EC2X ([4]; AVERAGE (S1 File)) [µM] | tGFP-542X Maxfold ([4]; AVERAGE (S1 File)) | tGFP-542X EC5X [4, 8] | tGFP-542X EC2X [4, 9] | tGFP-542X Maxfold [4, 9] | tGFP-542X EC5X [4, 10] | tGFP-542X Maxfold [4, 11] [fold] | CC50 [5] | HDQ-p53UGA213 EC2X ([7]; AVERAGE (S1 File)) [µM] | HDQ-p53UGA213 max ([7]; AVERAGE (S1 File)) | HDQ-p53UGA213 EC2X [7, 14] [µM] | other results |
| --- | --- | --- | --- | --- | --- | --- | --- | --- | --- | --- | --- | --- | --- | --- | --- | --- | --- | --- | --- | --- | --- |
| CN[C@@H]1[C@@H](O)[C@@H](O[C@@H]2[C@@H](O)[C@H](O[C@H]3O[C@H]([C@@H](C)O)[C@@H](O)[C@H](O)[C@H]3N)[C@@H](N)C[C@H]2N)OC[C@]1(C)O [G418, reference compound] | 3.6 µM | 0.0064 | 53.0 | 0.0260 | 0.0064 ± 0.0002 | 53 ± 2 | 0.0067 µM and 0.0063 µM | 51.05 and 54.30 and 53.65 | 0.0261 and 0.0252 and 0.0267 | 9.0 | 318.3 | 24.8 | 8 µM and 15 µM and 5 µM | 373 and 420 and 226 and 255 | 22 and 18 and 33 and 27 | 318 ± 93 | 270 µM and 289 µM and 294 µM and 295 µM and 372 µM and 440 µM and 458 µM and 473 µM and 841 µM and 853 µM and 914 µM and 1060 µM | 9.3 | 43.8 | 9 ± 5 | AUC ([1]; in vivo): 15000 ng·h/mL; AUC(0-t) ([1]; in vivo): 15000 ng·h/mL; Cmax ([1]; in vivo): 7400 ng/mL; Tmax ([1]; in vivo): 0.33 h; half-life ([1]; in vivo): 1.5 h; concentration at 24 h ([1]; in vivo, Kidney levels, 10 mg/kg subcutaneous, 24 hours post-dose, mean ± SD of three rats): 12000 ± 3000 ng/g; concentration at 24 h ([1]; in vivo, levels in the quadriceps, 10 mg/kg subcutaneous, 24 hours after dosing): ~40 ng/g; concentration at 24 h ([1]; in vivo, plasma levels, 10 mg/kg subcutaneous, 24 hours after dosing, at or below lower limit of quantification): ≤ 1 ng/g; tGFP-542X EC2X ([4]; 293H cells, 24 hours, average ± SD): 9 ± 4 µM; CC50 [6, 12]: 546 ± 286 µM; CC50 [6, 13]: 546 µM; HDQ-p53UGA213 (Maxfold) ([7]; average ± SD): 44 ± 19 fold |
| CN[C@@H]1[C@@H](O)[C@@H](O[C@@H]2[C@@H](O)[C@H](O[C@H]3O[C@H](CO)[C@@H](O)[C@H](O)[C@H]3N)[C@@H](N)C[C@H]2N)OC[C@]1(C)O (stereo in doubt) [Gentamicin X2, gentamicin X2] | 8.7 µM and 19 µM | 0.0288 | 195.3 | 0.0696 | 0.029 ± 0.009 | 195 ± 18 | 0.0300 µM and 0.0373 µM and 0.0192 µM | 193.99 and 177.60 and 214.25 | 0.0904 and 0.0449 and 0.0734 | 18.6 | 135.0 | 101.5 | 18.5 µM and 10.25 µM and 10.65 µM and 11.55 µM and 13.08 µM and 5.70 µM and 9.22 µM and 17.7 µM and 40.0 µM and 49.3 µM | 235 and 85 | 52 and 120 and 133 | 135 ± 87 | 2590 µM and 2630 µM and 2940 µM | 18.6 | 39.1 | 19 ± 6 | concentration at 24 h ([1]; kidney): 7000 ± 1000 ng/g; AUC ([1]; plasma): 13000 ng·h/mL; AUC(0-t) ([1]; plasma): 13000 ng·h/mL; Cmax ([1]; plasma): 5600 ng/mL; Tmax ([1]; plasma): 0.5 h; concentration at 24 h ([1]; plasma): ≤ 1 ng/g; half-life ([1]; plasma): 2.6 h; concentration at 24 h ([1]; quadriceps): ~40 ng/g; safety window (average CC50 / average EC2X) ([5]; PBMCs, compared with NB84, NB124 or G418, 95% confidence limits): statistically better safety window; CC50 at 72 h [6, 12]: 2970 ± 533 µM; CC50 at 72 h [6, 13]: 2970 µM; CC50 at 72 h ([6]; Stimulated PBMC CC50, individual determinations (S1 File)): 3740 µM; HDQ-p53UGA213 EC2X [7, 9]: 19.47 µM and 16.13 µM and 19.14 µM and 12.27 µM and 19.04 µM and 21.26 µM and 22.25 µM and 17.98 µM and 6.97 µM and 32.75 µM and 17.45 µM and 17.38 µM and 19.08 µM; HDQ-p53UGA213 max ([7]; individual experiments (S1 File), max fold): 23.4 and 60.4 and 40.4 and 95 and 8.4 and 8 and 12.7 and 10.6 and 84.8 and 5.1 and 37.4 and 60.1 and 62.2; HDQ-p53UGA213 (Maxfold) ([7]; average ± SD): 39 ± 31 fold |
